We go through three compounds from US12109284B2, “Compositions comprising fluoride and calcium and method for preparing them” (DENTHERAPY LTD, priority 2016, dated 2024).

A short description of data set [1]: Microindentation cycling re-mineralisation model (Example 4). Also on record: species or system human. The method, then:
Citric acid eroded human enamel specimens were placed into a cycling re-mineralisation model where they were cycled between a treatment, artificial saliva and citric acid five times a day over five days. Three different treatments were tested and were: 1. 2% OPN formulation containing 500 ppm fluoride. 2. 500 ppm fluoride solution. 3. Deionised water. At the end of each of the five days the micro hardness of the enamel was measured by Vickers microindentation to determine the extent of the re-mineralisation of the enamel lesions.
The microhardness of the enamel was determined by indentation using a Vickers diamond-tip indenter. Each hardness value was determined from the average of ten individual measurements made centrally on each enamel specimen using 1.9N force over an indent time of 20 seconds. At the start of each set of measurements a calibration check was performed using a standard metal block to ensure the reproducibility of microhardness was within 3% of the test block micro hardness.

The conditions of data set [2]: cited from earlier work; for Buffer range: pH.

Turning to `[F-].[Na+]` [NaF, sodium fluoride], the “Trend in remineralisation (microhardness ranking)” value in data set [1] (Day 1) was “OPN = NaF > DI water”; in data set [1] (Day 2), “OPN = NaF > DI water”; in data set [1] (Day 3) it was “NaF = OPN > DI water”; in data set [1] (Day 4 (probability 0.06)), “OPN = NaF > DI water”; in data set [1] (Day 5), “OPN > NaF > DI water”. In addition, the “Increase in hardness of eroded enamel compared to deionised water” value in data set [1] (all time points) is listed as “statistically superior to deionised water”.

For the compound `O=C([O-])O.[Na+]` [sodium bicarbonate], the Buffer range in data set [2] was 5.1-8.0.

The term pKa denotes the negative logarithm of the acid dissociation constant. tris(hydroxymethyl)aminomethane: in data set [2], the pKa is listed as 8.97 and the Buffer range is 7.5-9.5.
